Results as given in ChEMBL document CHEMBL1148196, “Isoprenoids of the soft coral Sarcophyton glaucum: Nyalolide, a new biscembranoid, and other terpenoids” (2004).

Key:
Type in all cases: functional
P388 = test: Cytotoxicity against mouse P388 cells
A549 = test: Cytotoxicity against human A549 cells
HT-29 = test: Cytotoxicity against human HT29 cells
SK-MEL-28 = test: Cytotoxicity against human SK-MEL-28 cells

Measured: GI50

COC(=O)[C@]12CC(=O)[C@H](C(C)C)CC(=O)[C@H](C)CCC[C@H](C)CC(=O)[C@H]1CC(C)=C1C[C@H](OC(C)=O)[C@](C)(O)[C@H]3CC[C@@](C)(O)[C@H](CC/C(C)=C/[C@@H]12)O3 [NYALOLIDE]
10 µM: all assays above

CC(C)=C1C=C2[C@@H](CC[C@@H]2C)[C@@H](C)CC1=O [GUAIACOPHINE]
10 µM: all assays above

COC(=O)/C1=C\CC/C(C)=C/[C@@H]2OC(=O)C(C)=C2C[C@H](OC(C)=O)/C(C)=C/CC1
10 µM: all assays above
